Experimental data taken from US20260053778A1, “USE OF NOVEL PPAR ACTIVITY MODULATOR FOR PREVENTION, AMELIORATION OR TREATMENT OF DEGENERATIVE BRAIN DISEASES” (POSTECH RESEARCH AND BUSINESS DEVELOPMENT FOUNDATION, priority 2022, published 2026).

What was measured:
[1] = target: T1, PPARβ/δ (Homo sapiens, UniProt Q03181); assay: GAL4-transactivation assay in HEK293A cells, PPARβ/δ; format: cell-based; details: GAL4 reporter, 24 h, compared with GW501516
T1 construct: expressed in transfected cells; host or cells: HEK293A
T1 sequence (Q03181 1-441): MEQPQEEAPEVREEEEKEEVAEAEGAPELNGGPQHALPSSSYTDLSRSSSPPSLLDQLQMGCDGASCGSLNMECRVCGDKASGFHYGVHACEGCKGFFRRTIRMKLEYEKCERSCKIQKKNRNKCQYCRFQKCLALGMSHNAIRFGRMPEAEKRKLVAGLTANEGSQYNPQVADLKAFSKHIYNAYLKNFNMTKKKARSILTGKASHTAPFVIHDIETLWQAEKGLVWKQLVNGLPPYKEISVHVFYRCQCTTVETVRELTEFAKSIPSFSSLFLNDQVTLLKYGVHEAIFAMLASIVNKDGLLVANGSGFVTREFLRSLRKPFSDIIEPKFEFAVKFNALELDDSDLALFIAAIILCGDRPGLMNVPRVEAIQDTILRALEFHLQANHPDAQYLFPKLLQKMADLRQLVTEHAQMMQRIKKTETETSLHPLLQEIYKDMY
Procedure: A GAL4-transactivation assay experiment was performed to determine whether the drug was bound to the PPAR ligand binding site. HEK293A cells were transfected with GAL4-reporter plasmid and pGL4.74 (Promega, Madison, WI, USA) as an internal standard via electroporation using the Neon Transfection System (Invitrogen, Carlsbad, CA, USA). All vectors were kindly provided by Professor Kanno Yuichiro, Toho University, Japan. After overnight culture, cells were treated with DTMB and each positive control compound for 24 h. Cells were then harvested, resuspended in luciferase lysis buffer (Promega), and incubated on ice for 10 min. Cell debris was removed by centrifugation at 20,000×g, 4° C. for 10 min, and the supernatant was used for the luciferase assay. Luciferase activity was measured using the Dual Luciferase Reporter Assay System (Promega) according to the manufacturer's instructions. In the measurement experiment, firefly luciferase activity was normalized to Renilla luciferase activity. To investigate the concentration-dependent effect of DTMB drug, EC50 values were measured by treating various concentrations of DTMB.

[2] = tested on: BV2 microglial cell line; assay: Cytokine ELISA in BV2 microglia; format: cell-based, mouse; details: BV2 treated with LPS or Aβ aggregates, DTMB 24 h
Procedure: (§1) To confirm a more clear anti-inflammatory effect, the microglia cell line (BV2) and microglia isolated from mice were treated with lipopolysaccharide (LPS) and Aβ aggregates to induce an inflammatory response, and then DTMB was treated to measure the decrease in cytokine levels in microglia by DTMB treatment using ELISA.
The BV2 mouse microglia cell line was provided by Professor Seok Kyung-ho of Kyungpook National University. BV2 cells were cultured in a 5% CO2 incubator with a humidified atmosphere at 37° C. with Dulbecco's Modified Eagle Medium (DMEM) (Hyclone, Logan, UT, USA) containing 5% fetal bovine serum (FBS, Hyclone) and 50 μg/mL gentamicin (Lonza, Switzerland).
Cytokine levels (TNF-α, IL-1β, and IL-6) were measured in the media of BV2 microglia and primary microglia treated with LPS (1 μg/mL) and human Aβ1-42 (5 μg/mL). Human Aβ1-42 (AnaSpec, Fremont, CA, USA) was pre-aggregated in the culture medium for 24 h before cell treatment. BV2 cells and primary microglia were seeded in 12-well plates (SPL) at a density of 1× 10^5 cells/well in 1 mL of complete medium. After 12 h, cells were treated with LPS or human Aβ1-42 and further cultured with DTMB for 24 h. […]

[3] = tested on: primary microglia isolated from mouse; assay: Cytokine ELISA in primary microglia; format: cell-based; details: primary microglia treated with LPS or Aβ aggregates, DTMB 24 h
Procedure: as §1
Primary microglial culture was performed as described in the literature [Lian H, Roy E, Zheng H. Protocol for primary microglial culture preparation. Bio-protocol. 2016; 6(21)]. Postnatal day 3 mice were used for primary microglial cell preparation. Newborn mouse pups were anesthetized on ice and then sacrificed. The isolated cortex and hippocampus were collected after removing the meninges. The brain tissues were dissociated by incubation with trypsin (2.5%) in HBSS (Gibco, Gaithersburg, MD, USA) for 15 min. The cell homogenate was then cultured in M-CSF (20 ng/mL, R&D Systems) supplemented with DMEM-F12 medium containing 10% fetal bovine serum, 10% horse serum, 1% GlutaMAX (Gibco, MD, USA), and 1% penicillin/streptomycin (Welgene, Korea). After 10 days, microglia were purified by shaking at 260 rpm for 2 h.
Cytokine levels (TNF-α, IL-1β, and IL-6) were measured in the media of BV2 microglia and primary microglia treated with LPS (1 μg/mL) and human Aβ1-42 (5 μg/mL). […]

[4] = tested on: primary microglia; assay: Quantitative PCR of inflammation genes in primary microglia; format: cell-based, mouse; details: qPCR
From the text: In addition, the gene expression levels of Il-6. Il-1 #, and iNOS, which are NF-κB target genes related to chronic inflammation, and Arg-1, an anti-inflammatory marker, were confirmed by quantitative PCR (qPCR) analysis in primary microglia.
Total RNA was isolated using TRI reagent (Molecular Research Center, Cincinnati, OH, USA). RNA was reverse transcribed using the ImProm-II Reverse Transcription System (Promega) according to the manufacturer's instructions. For detection and quantification, the StepOnePlus Real-Time PCR System (Applied Biosystems, Foster City, CA, USA) was used with FastStart Universal SYBR Green Master (Roche, Basel, Switzerland). Real-time qPCR data were analyzed using the comparative CT method.

[5] = tested on: microglial cells isolated from mice; assay: Western blotting of NF-κB, NLRP-3 and ASC in primary microglia; format: cell-based, mouse; details: primary microglia treated with Aβ aggregates or LPS, Western blot
Procedure: To confirm the mechanism by which DTMB exerts its anti-inflammatory effect, microglial cells isolated from mice were treated with Aβ aggregates or LPS to induce an inflammatory response, and then DTMB was treated to determine the levels of NF-κB, NLRP-3, and ASC proteins by western blotting.
The cells were lysed with lysis buffer containing 50 mM Tris (pH 7.4), 140 mM NaCl, 5 mM EDTA, and protease inhibitor tablets, and then sonicated. The protein concentration of the lysate was determined using Bradford reagent (AMERSCO, MA, USA). Proteins were separated by sodium dodecyl sulfate (SDS) polyacrylamide gel electrophoresis, transferred to nitrocellulose membranes (Pall Corporation, New York, NY, USA), and incubated with blocking buffer (5% nonfat dry milk and 0.1% Tween 20 in TBS) for 30 min. Western blot analysis was performed using primary antibodies against NF-κB, NLRP3, and ASC (Cell Signaling Technology, Danvers, MA, USA). Secondary antibodies from rabbit (Promega), rat, and goat (Bethyl Laboratories) were used, and detection was performed using SUPEX ECL reagent (Neuronex, Korea) and ImageQuant LAS-4000 (GE Healthcare, MA, USA) according to the manufacturer's instructions. Integrated blot densities were quantified using ImageJ.

## COc1ccc(-c2cc(=O)oc3c(C)c(OC(=O)[C@H](Cc4c[nH]c5ccccc45)NC(=O)OC(C)(C)C)ccc23)cc1 [DTMB, [4-(4-Methoxyphenyl)-8-methyl-2-oxochromen-7-yl](2S)-3-(1H-indol-3-yl)-2-[(2-methylpropan-2-yl)oxycarbonylamino]propanoate]
[1]
  PPARβ/δ activation versus positive control: activated at a slightly higher concentration than GW501516 and rosiglitazone, respectively
[2]
  Level of IL-6: statistically significantly reduced
  Level of TNF-α: statistically significantly reduced
[3]
  Level of IL-6: statistically significantly reduced
  Level of TNF-α: statistically significantly reduced
[4]
  Expression of Il-1β: decreased
  Expression of Il-6: decreased
  Expression of anti-inflammatory marker Arg-1: induced
  Expression of iNOS: decreased
[5]
  NF-κB protein level: reducing NF-κB
  NLRP3 protein level: reduced
